Values joined by “and” are separate entries in the source; they are usually repeats but may differ in a detail not shown here. Identical values can stand only once.
Legend:
D2LR [1] = biological target: T1, D2LR (Homo sapiens, UniProt P14416); assay: ERK1/2 phosphorylation assay (Alphascreen SureFire); assay type: cell-based; set-up: expressed in transfected cells; conditions: for alpahscreen assay to detect pERK1/2, counts: agonist 10 μM (cariprazine 1 μM), single experiments n=1 to n=4
How it was run: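 Phosphorylated ERK1/2 was quantified with the Alphascreen SureFire ERK kit from PerkinElmer. Cells were plated at 50,000 per well in 96-well plates, washed with PBS after 5–7 h, and kept in serum-free DMEM overnight. Ligand dose–response curves were run at 37 °C with 0.1% ascorbic acid. Lysates were shaken 5 min at RT, 5 μl moved to 384-well Proxiplates, and read on a Fusion-TM reader.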

[2] = biological target: SNAP-tagged human dopamine D2L (Homo sapiens, UniProt P14416); assay: Tag-lite PPHT-red competition kinetic binding (HTRF); conditions: PPHT-red tracer, Tag-lite
D2LR [3] = biological target: T1, D2LR; conditions: 0.1 nM [3H]spiperone; 3 h at 37 °C; 100 μM GppNHp
Description: The cells were harvested in PBS containing 2 mM EDTA and centrifuged at 300 g for 3 min. The resulting pellet was resuspended in ice-cold assay buffer (20 mM HEPES, 100 mM NaCl, 6 mM MgCl2, 1 mM EGTA and 1 mM EDTA pH 7.4) and the centrifugation step was repeated. The intact cell pellet was then resuspended in assay buffer and homogenized using a Polytron homogenizer. After centrifugation (1,000 g, 10 min), the pellet was discarded and the supernatant was recentrifuged at 30,000 g for 1 h at 4 °C using a Sorvall Evolution RC ultracentrifuge (Thermo Scientific). The resulting pellet was resuspended in assay buffer and stored in 250 μl aliquots at −80 °C. Membrane protein concentration was determined using the method of Bradford.
All radioligand binding experiments were conducted at 37 °C in a 1-ml reaction volume in assay buffer (20 mM HEPES, 100 mM NaCl, 6 mM MgCl2, 1 mM EGTA and 1 mM EDTA pH 7.4) containing 100 μM GppNHp and 0.1% ascorbic acid. In all cases, nonspecific binding was determined in the presence of 10 μM haloperidol. […] Filter-bound radioactivity was measured by scintillation spectrometry after the addition of 3.5 ml of Ultima Gold (PerkinElmer) using a Tri-Carb 2900TR liquid scintillation counter (PerkinElmer).
where Y denotes the percentage-specific binding, Top and Bottom denote the maximal and minimal asymptotes, respectively, IC50 denotes the X-value when the response is midway between Bottom and Top, and nH denotes the Hill slope factor. IC50 values obtained from the inhibition curves were converted to Ki values using the Cheng and Prusoff equation[61].

D2LR [4] = biological target: T1, D2LR; assay: Inhibition of forskolin-induced cAMP production (BRET CAMYEL biosensor); conditions: for Emax cAMP: relative to the maximal response of ropinirole; for Inhibition of cAMP production measured using a CAMYEL BRET biosensor, Net BRET: single experiments n = 1, 2, 3
Description: Flp-In-CHO cells stably expressing the D2LR were seeded at a density of 2,000,000 cells per 10-cm dish and were transfected the following day using polyethylenimine as the transfection reagent. The cells were transfected with 3 μg CAMYEL, to allow the detection of cAMP levels within the cells. Twenty-four hours after transfection, the cells were plated into 96-well CulturPlates (PerkinElmer) and grown overnight. The cells were equilibrated in Hank's balanced salt solution at 37 °C (or 25 °C when indicated) before starting the experiment. The cells were co-stimulated with the agonists and 10 μM forskolin for the indicated timeframes when the BRET readings were captured. Coelenterazine (Promega) was added at a final concentration of 5 μM at least 3 min before measurement. […] Net BRET was determined by subtraction of the vehicle control co-added with 10 μM forskolin.

[5] = 5 minute timepoint, Flp-In-CHO-D2LR
[6] = 5 minute timepoint, dopamine as reference agonist

T1 sequence (P14416 whole entry, the tested form may be a part): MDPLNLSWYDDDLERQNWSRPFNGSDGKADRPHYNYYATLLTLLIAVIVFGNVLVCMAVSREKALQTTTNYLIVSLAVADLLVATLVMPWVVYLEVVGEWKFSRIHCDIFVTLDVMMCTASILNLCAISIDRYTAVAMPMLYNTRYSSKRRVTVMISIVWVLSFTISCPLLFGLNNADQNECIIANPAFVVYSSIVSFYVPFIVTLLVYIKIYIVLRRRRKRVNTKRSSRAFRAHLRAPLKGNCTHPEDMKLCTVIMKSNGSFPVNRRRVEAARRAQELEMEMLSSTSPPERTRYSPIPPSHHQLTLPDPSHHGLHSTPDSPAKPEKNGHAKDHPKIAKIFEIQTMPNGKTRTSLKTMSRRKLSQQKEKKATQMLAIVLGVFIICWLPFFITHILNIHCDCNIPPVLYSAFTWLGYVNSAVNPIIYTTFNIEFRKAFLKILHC
Chain of SNAP-tagged human dopamine D2L (P14416 whole entry): as the sequence (P14416 whole entry, the tested form may be a part) above

SMILES: CN1CCN(c2cccc3[nH]c(=O)oc23)CC1 [Pardoprunox, pardoprunox]
- Log(τ/KA) pERK1/2 (D2LR [1]; [5]): 9.06 ± 0.08
- ΔLog(τ/KA) pERK1/2 (D2LR [1]; [6]): 0.50 ± 0.10
- alpahscreen assay to detect pERK1/2, counts (D2LR [1]; time 7.5 mins): 13.2699 counts and 16.7995 counts and 15.0808 counts and 9.987 counts
- alpahscreen assay to detect pERK1/2, counts (D2LR [1]; time 10 mins): 12.5176 counts and 12.8139 counts and 9.935 counts and 7.3291 counts
- alpahscreen assay to detect pERK1/2, counts (D2LR [1]; time 20 mins): 2.97 counts and 3.103 counts and 2.735 counts and 1.953 counts
- pKd (affinity determined from kinetic parameters) [2]: 7.75
- koff ([2]; 100 μM GppNHp, 37 °C): 0.038 ± 0.00933 s⁻¹
- pKi (affinity from competition binding experiments using [3H]spiperone) (D2LR [3]): 7.63 ± 0.06
- pEC50 cAMP (D2LR [4]; 2 min): 8.98
- Emax cAMP (D2LR [4]; 2 min): 87 ± 1.9
- pEC50 cAMP (D2LR [4]; 5 min): 8.69
- Emax cAMP (D2LR [4]; 5 min): 87 ± 1.5
- Log(τ/KA) cAMP (D2LR [4]; [5]): 8.64 ± 0.05
- ΔLog(τ/KA) cAMP (D2LR [4]; [6]): 0.58 ± 0.07
- pEC50 cAMP (D2LR [4]; 10 min): 8.39
- Emax cAMP (D2LR [4]; 10 min): 86 ± 1.4
- pEC50 cAMP (D2LR [4]; 15 min): 8.33
- Emax cAMP (D2LR [4]; 15 min): 87 ± 1.6
- pEC50 cAMP (D2LR [4]; 30 min): 8.46
- Emax cAMP (D2LR [4]; 30 min): 85 ± 2.1
- pEC50 cAMP (D2LR [4]; 45 min): 8.03
- Emax cAMP (D2LR [4]; 45 min): 82 ± 1.4
- pEC50 cAMP (D2LR [4]; 60 min): 7.82
- Emax cAMP (D2LR [4]; 60 min): 74 ± 1.8
- pEC50 cAMP (D2LR [4]; 75 min): 8.04
- Emax cAMP (D2LR [4]; 75 min): 84 ± 2.2
- pEC50 cAMP (D2LR [4]; 90 min): 7.83
- Emax cAMP (D2LR [4]; 90 min): 81 ± 1.6
- Inhibition of cAMP production measured using a CAMYEL BRET biosensor, Net BRET (D2LR [4]; time 2.21667 mins): 0.09312 and 0.1119 and 0.09462
- Inhibition of cAMP production measured using a CAMYEL BRET biosensor, Net BRET (D2LR [4]; time 2.58333 mins): 0.09848 and 0.1094 and 0.0984
- Inhibition of cAMP production measured using a CAMYEL BRET biosensor, Net BRET (D2LR [4]; time 2.95 mins): 0.1044 and 0.1291 and 0.0949
- Inhibition of cAMP production measured using a CAMYEL BRET biosensor, Net BRET (D2LR [4]; time 3.31667 mins): 0.1072 and 0.1248 and 0.1125
- Inhibition of cAMP production measured using a CAMYEL BRET biosensor, Net BRET (D2LR [4]; time 3.68333 mins): 0.1144 and 0.1213 and 0.1135
- Inhibition of cAMP production measured using a CAMYEL BRET biosensor, Net BRET (D2LR [4]; time 4.05 mins): 0.1221 and 0.1382 and 0.1172
- Inhibition of cAMP production measured using a CAMYEL BRET biosensor, Net BRET (D2LR [4]; time 4.41667 mins): 0.1176 and 0.1369 and 0.114
- Inhibition of cAMP production measured using a CAMYEL BRET biosensor, Net BRET (D2LR [4]; time 4.78333 mins): 0.1323 and 0.136 and 0.1109
- Inhibition of cAMP production measured using a CAMYEL BRET biosensor, Net BRET (D2LR [4]; time 5.15 mins): 0.1365 and 0.1389 and 0.1171
- Inhibition of cAMP production measured using a CAMYEL BRET biosensor, Net BRET (D2LR [4]; time 5.51667 mins): 0.1301 and 0.1395 and 0.116
- Inhibition of cAMP production measured using a CAMYEL BRET biosensor, Net BRET (D2LR [4]; time 5.88333 mins): 0.1412 and 0.1297 and 0.1213
- Inhibition of cAMP production measured using a CAMYEL BRET biosensor, Net BRET (D2LR [4]; time 6.25 mins): 0.1339 and 0.1324 and 0.1196
- Inhibition of cAMP production measured using a CAMYEL BRET biosensor, Net BRET (D2LR [4]; time 6.61667 mins): 0.1245 and 0.1374 and 0.113
- Inhibition of cAMP production measured using a CAMYEL BRET biosensor, Net BRET (D2LR [4]; time 6.98333 mins): 0.1378 and 0.1302 and 0.1147
- Inhibition of cAMP production measured using a CAMYEL BRET biosensor, Net BRET (D2LR [4]; time 7.35 mins): 0.1418 and 0.1291 and 0.1123
- Inhibition of cAMP production measured using a CAMYEL BRET biosensor, Net BRET (D2LR [4]; time 7.71667 mins): 0.1394 and 0.1366 and 0.1233
- Inhibition of cAMP production measured using a CAMYEL BRET biosensor, Net BRET (D2LR [4]; time 8.08333 mins): 0.1443 and 0.1378 and 0.1166
- Inhibition of cAMP production measured using a CAMYEL BRET biosensor, Net BRET (D2LR [4]; time 8.45 mins): 0.1408 and 0.1371 and 0.1127
- Inhibition of cAMP production measured using a CAMYEL BRET biosensor, Net BRET (D2LR [4]; time 8.81667 mins): 0.144 and 0.1435 and 0.1231
- Inhibition of cAMP production measured using a CAMYEL BRET biosensor, Net BRET (D2LR [4]; time 9.18333 mins): 0.1482 and 0.1437 and 0.1124
- Inhibition of cAMP production measured using a CAMYEL BRET biosensor, Net BRET (D2LR [4]; time 9.55 mins): 0.1472 and 0.1422 and 0.1225
- Inhibition of cAMP production measured using a CAMYEL BRET biosensor, Net BRET (D2LR [4]; time 9.91667 mins): 0.1503 and 0.1391 and 0.1248
- Inhibition of cAMP production measured using a CAMYEL BRET biosensor, Net BRET (D2LR [4]; time 10.2833 mins): 0.1418 and 0.1435 and 0.1207
- Inhibition of cAMP production measured using a CAMYEL BRET biosensor, Net BRET (D2LR [4]; time 10.65 mins): 0.1434 and 0.1464 and 0.1244
- Inhibition of cAMP production measured using a CAMYEL BRET biosensor, Net BRET (D2LR [4]; time 11.0167 mins): 0.1459 and 0.1412 and 0.1263
- Inhibition of cAMP production measured using a CAMYEL BRET biosensor, Net BRET (D2LR [4]; time 11.3833 mins): 0.1508 and 0.1374 and 0.1263
- Inhibition of cAMP production measured using a CAMYEL BRET biosensor, Net BRET (D2LR [4]; time 11.75 mins): 0.1476 and 0.1469 and 0.1207
- Inhibition of cAMP production measured using a CAMYEL BRET biosensor, Net BRET (D2LR [4]; time 12.1167 mins): 0.1454 and 0.1457 and 0.1265
- Inhibition of cAMP production measured using a CAMYEL BRET biosensor, Net BRET (D2LR [4]; time 12.4833 mins): 0.14 and 0.1421 and 0.1315
- Inhibition of cAMP production measured using a CAMYEL BRET biosensor, Net BRET (D2LR [4]; time 12.85 mins): 0.1413 and 0.1515 and 0.1219
- Inhibition of cAMP production measured using a CAMYEL BRET biosensor, Net BRET (D2LR [4]; time 13.2167 mins): 0.1418 and 0.1452 and 0.1337
- Inhibition of cAMP production measured using a CAMYEL BRET biosensor, Net BRET (D2LR [4]; time 13.5833 mins): 0.1514 and 0.1571 and 0.1315
- Inhibition of cAMP production measured using a CAMYEL BRET biosensor, Net BRET (D2LR [4]; time 13.95 mins): 0.1501 and 0.1517 and 0.1357
- Inhibition of cAMP production measured using a CAMYEL BRET biosensor, Net BRET (D2LR [4]; time 14.3167 mins): 0.1522

Source: paper PMC4770093, “The role of kinetic context in apparent biased agonism at GPCRs” (Nature Communications, 2016)
